Data as given in US20110092547A1 (priority 2007, published 2011).
pIC50: −log10 of the molar value.

Biological target: T1, human DGAT1 (Homo sapiens, UniProt O75907)
T1 construct: made in house; host or cells: Sf9 insect cells (recombinant baculovirus); membrane fraction
T1 sequence (O75907 1-488): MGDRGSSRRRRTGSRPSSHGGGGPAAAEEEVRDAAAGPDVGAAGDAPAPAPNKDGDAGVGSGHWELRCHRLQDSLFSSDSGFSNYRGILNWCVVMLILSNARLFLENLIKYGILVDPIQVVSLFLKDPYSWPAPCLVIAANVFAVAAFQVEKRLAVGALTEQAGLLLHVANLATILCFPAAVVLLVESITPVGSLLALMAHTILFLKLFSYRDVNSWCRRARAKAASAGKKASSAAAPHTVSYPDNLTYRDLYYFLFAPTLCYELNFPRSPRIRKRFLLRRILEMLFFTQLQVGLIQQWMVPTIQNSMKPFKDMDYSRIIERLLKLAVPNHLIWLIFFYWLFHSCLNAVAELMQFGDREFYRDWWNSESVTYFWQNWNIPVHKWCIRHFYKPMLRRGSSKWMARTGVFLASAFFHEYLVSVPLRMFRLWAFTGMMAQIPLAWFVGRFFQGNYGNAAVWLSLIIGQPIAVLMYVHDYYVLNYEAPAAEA
Assay: Human enzyme assay, further developed assay (14C oleoyl CoA, 96 well plate)
Type: biochemical
Conditions: human DGAT1 expressed in insect cell (sf9) membranes
Procedure: The in vitro assay to identify DGAT1 inhibitors uses human DGAT1 expressed in insect cell membranes as the enzyme source (Proc. Natl. Acad. Sci. 1998, 95, 13018-13023). Briefly, sf9 cells were infected with recombinant baculovirus containing human DGAT1 coding sequences and harvested after 48 h. Cells were lysed by sonication and membranes isolated by centrifuging at 28000 rpm for 1 h at 4° C. on a 41% sucrose gradient. The membrane fraction at the interphase was collected, washed, and stored in liquid nitrogen.
In a further developed assay, DGAT1 activity was assayed by a modification of the method described by Coleman (Methods in Enzymology 1992, 209, 98-102). Compound at 0.00003-10 μM (final cone) was incubated with 25 μg/ml (final cone) membrane protein, 5 mM MgCl2, and 100 μM 1,2 dioleoyl-sn-glycerol in a total assay volume of 200 μl in a 96 well plate. The reaction was started by adding ^14C oleoyl coenzyme A (30 μM final concentration) and incubated at room temperature for 30 minutes. The reaction was stopped by adding 300 μl 2-propanol:heptane 7:1. Radioactive triolein product was separated into the organic phase by adding 200 μl heptane and 200 μl 0.1 M carbonate buffer pH 9.5. DGAT1 activity was quantified by counting aliquots of the upper heptane layer by liquid scintillography.

Compound | pIC50
CC1(C(=O)O)CCC(Oc2ccc(NC(=O)c3nnc(Nc4ccc(F)c(Cl)c4)o3)cn2)CC1 (mixture of isomers) [Example 69, 4-(5-(5-(3-Chloro-4-fluorophenylamino)-1,3,4-oxadiazole-2-carboxamido)pyridin-2-yloxy)-1-methylcyclohexanecarboxylic acid] | 8.37
C[C@]1(C(=O)O)CC[C@H](Oc2ccc(NC(=O)c3nnc(Nc4ccc(F)c(F)c4)o3)cn2)CC1 [Example 2, (1r,4r)-4-(5-(5-(3,4-difluorophenylamino)-1,3,4-oxadiazole-2-carboxamido)pyridin-2-yloxy)-1-methylcyclohexanecarboxylic acid] | 6.31
COC[C@]1(C(=O)O)CC[C@H](Oc2ccc(NC(=O)c3nnc(Nc4ccc(F)c(F)c4)o3)cn2)CC1 [Example 4, (1r,4r)-4-(5-(5-(3,4-Difluorophenylamino)-1,3,4-oxadiazole-2-carboxamido)pyridin-2-yloxy)-1-(methoxymethyl)cyclohexanecarboxylic acid] | 7.82
O=C(Nc1ccc(O[C@H]2CC[C@@H](C(=O)O)CC2)nc1)c1nnc(Nc2cccc(OC(F)(F)F)c2)o1 [Example 6, (1s,4s)-4-(5-(5-(3-(trifluoromethoxy)phenylamino)-1,3,4-oxadiazole-2-carboxamido)pyridin-2-yloxy)cyclohexanecarboxylic acid] | 7.64
O=C(Nc1ccc(O[C@H]2CC[C@@H](C(=O)O)CC2)nc1)c1nnc(Nc2cccc(Cl)c2)o1 [Example 7, (1s,4s)-4-(5-(5-(3-chlorophenylamino)-1,3,4-oxadiazole-2-carboxamido)pyridin-2-yloxy)cyclohexanecarboxylic acid] | 8.00
CC(C)(C)c1ccc(Nc2nnc(C(=O)Nc3ccc(O[C@H]4CC[C@@H](C(=O)O)CC4)nc3)o2)cc1 [Example 9, (1s,4s)-4-(5-(5-(4-tert-butylphenylamino)-1,3,4-oxadiazole-2-carboxamido)pyridin-2-yloxy)cyclohexanecarboxylic acid] | 7.26
CC(C)c1ccc(Nc2nnc(C(=O)Nc3ccc(O[C@H]4CC[C@@H](C(=O)O)CC4)nc3)o2)cc1 [Example 10, (1s,4s)-4-(5-(5-(4-isopropylphenylamino)-1,3,4-oxadiazole-2-carboxamido)pyridin-2-yloxy)cyclohexanecarboxylic acid] | 7.72
O=C(Nc1ccc(O[C@H]2CC[C@@H](C(=O)O)CC2)nc1)c1nnc(Nc2ccc(OC(F)(F)F)cc2)o1 [Example 11, (1s,4s)-4-(5-(5-(4-(trifluoromethoxy)phenylamino)-1,3,4-oxadiazole-2-carboxamido)pyridin-2-yloxy)cyclohexanecarboxylic acid] | 8.14
Cc1ccc(Nc2nnc(C(=O)Nc3ccc(O[C@H]4CC[C@@H](C(=O)O)CC4)nc3)o2)cc1Cl [Example 15, (1s,4s)-4-(5-(5-(3-chloro-4-methylphenylamino)-1,3,4-oxadiazole-2-carboxamido)pyridin-2-yloxy)cyclohexanecarboxylic acid] | 8.10
Cc1cc(NC(=O)c2nnc(Nc3cccc(Cl)c3)o2)cnc1O[C@H]1CC[C@@H](C(=O)O)CC1 [Example 18, (1s,4s)-4-(5-(5-(3-chlorophenylamino)-1,3,4-oxadiazole-2-carboxamido)-3-methylpyridin-2-yloxy)cyclohexanecarboxylic acid] | 7.68
O=C(Nc1ccc(OC2CCC(C(=O)O)CC2)nc1)c1nnc(Nc2ccc(F)cc2)o1 (centres unmarked) [Example 20, 4-4-({5-[({5-[(4-fluorophenyl)amino]-1,3,4-oxadiazol-2-yl}-carbonyl)amino]pyridin-2-yl}oxy)cyclohexanecarboxylic acid] | 8.01
O=C(Nc1ccc(OC2CCC(C(=O)O)CC2)nc1)c1nnc(Nc2ccc(OC(F)F)cc2)o1 (centres unmarked) [Example 21, 4-[(5-{[(5-{[4-(difluoromethoxy)phenyl]amino}-1,3,4-oxadiazol-2-yl)carbonyl]amino}pyridin-2-yl)oxy]cyclohexanecarboxylic acid] | 7.96
O=C(Nc1ccc(O[C@H]2CC[C@H](C(=O)O)CC2)nc1)c1nnc(Nc2ccc(OC(F)(F)F)cc2)o1 [Example 25, (1r,4r)-4-(5-(5-(4-(trifluoro-methoxy)phenylamino)-1,3,4-oxadiazole-2-carboxamido)pyridin-2-yloxy)cyclo-hexane-carboxylic acid] | 7.28

Now from value to molecule:

pIC50 | Compound
7.96 | O=C(Nc1ccc(O[C@H]2CC[C@@H](C(=O)O)CC2)nc1)c1nnc(Nc2ccc(F)c(F)c2)o1 [Example 1, cis-4-[5-[[5-[(3,4-Difluorophenyl)amino]-1,3,4-oxadiazole-2-carbonyl]amino]pyridin-2-yl]oxycyclohexane-1-carboxylic acid]
7.46 | COC[C@]1(C(=O)O)CC[C@H](Oc2ccc(NC(=O)c3nnc(Nc4cc(F)c(F)cc4F)o3)cn2)CC1 [Example 3, 1-(Methoxymethyl)-4-(5-(5-(2,4,5-trifluorophenylamino)-1,3,4-oxadiazole-2-carboxamido)pyridin-2-yloxy)cyclohexanecarboxylic acid]
7.51 | O=C(Nc1ccc(O[C@H]2CC[C@@H](C(=O)O)CC2)nc1)c1nnc(Nc2cc(C(F)(F)F)c(F)cc2F)o1 [Example 5, (1s,4s)-4-(5-(5-(2,4-difluoro-5-(trifluoromethyl)phenylamino)-1,3,4-oxadiazole-2-carboxamido)pyridin-2-yloxy)cyclohexanecarboxylic acid]
8.00 | O=C(Nc1ccc(O[C@H]2CC[C@@H](C(=O)O)CC2)nc1)c1nnc(Nc2ccc(F)c(C(F)(F)F)c2)o1 [Example 8, (1s,4s)-4-(5-(5-(4-fluoro-3-(trifluoromethyl)phenylamino)-1,3,4-oxadiazole-2-carboxamido)pyridin-2-yloxy)cyclohexanecarboxylic acid]
8.13 | O=C(Nc1ccc(O[C@H]2CC[C@@H](C(=O)O)CC2)nc1)c1nnc(Nc2ccc(Cl)cc2Cl)o1 [Example 12, (1s,4s)-4-(5-(5-(2,4-dichlorophenylamino)-1,3,4-oxadiazole-2-carboxamido)pyridin-2-yloxy)cyclohexanecarboxylic acid]
7.96 | O=C(Nc1ccc(O[C@H]2CC[C@@H](C(=O)O)CC2)nc1)c1nnc(Nc2ccc(Br)cc2Cl)o1 [Example 13, (1s,4s)-4-(5-(5-(4-bromo-2-chlorophenylamino)-1,3,4-oxadiazole-2-carboxamido)pyridin-2-yloxy)cyclohexanecarboxylic acid]
7.96 | O=C(Nc1ccc(O[C@H]2CC[C@@H](C(=O)O)CC2)nc1)c1nnc(Nc2cccc(Cl)c2Cl)o1 [Example 14, (1s,4s)-4-(5-(5-(2,3-dichlorophenylamino)-1,3,4-oxadiazole-2-carboxamido)pyridin-2-yloxy)cyclohexanecarboxylic acid]
8.42 | O=C(Nc1ccc(O[C@H]2CC[C@@H](C(=O)O)CC2)nc1)c1nnc(Nc2ccc(F)c(Cl)c2)o1 [Example 16, (1s,4s)-4-(5-(5-(3-chloro-4-fluorophenylamino)-1,1,4-oxadiazole-2-carboxamido)pyridin-2-yloxy)cyclohexanecarboxylic acid]
7.57 | Cc1cc(NC(=O)c2nnc(Nc3ccc(F)c(F)c3)o2)cnc1O[C@H]1CC[C@@H](C(=O)O)CC1 [Example 17, (1s,4s)-4-(5-(5-(3,4-difluorophenylamino)-1,3,4-oxadiazole-2-carboxamido)-3-methylpyridin-2-yloxy)cyclohexanecarboxylic acid]
7.92 | O=C(Nc1ccc(OC2CCC(C(=O)O)CC2)nc1)c1nnc(Nc2cc(F)c(F)cc2F)o1 (centres unmarked) [Example 19, 4-({5-[({5-[(2,4,5-trifluorophenyl)amino]-1,3,4-oxadiazol-2-yl}carbonyl)amino]pyridin-2-yl}oxy)cyclohexanecarboxylic acid]
7.44 | O=C(Nc1ccc(O[C@H]2CC[C@H](C(=O)O)CC2)nc1)c1nnc(Nc2cc(F)c(F)cc2F)o1 [Example 22, (1r,4r)-4-(5-(5-(2,4,5-trifluorophenylamino)-1,3,4-oxadiazole-2-carboxamido)pyridin-2-yloxy)cyclohexanecarboxylic acid]
7.68 | O=C(Nc1ccc(O[C@H]2CC[C@H](C(=O)O)CC2)nc1)c1nnc(Nc2ccc(Cl)cc2Cl)o1 [Example 23, (1r,4r)-4-(5-(5-(2,4-dichloro-phenylamino)-1,3,4-oxadiazole-2-carboxamido)pyridin-2-yloxy)cyclo-hexane-carboxylic acid]
7.70 | O=C(Nc1ccc(O[C@H]2CC[C@H](C(=O)O)CC2)nc1)c1nnc(Nc2ccc(F)c(Cl)c2)o1 [Example 24, (1r,4r)-4-(5-(5-(3-chloro-4-fluoro-phenylamino)-1,3,4-oxadiazole-2-carboxamido)pyridin-2-yloxy)cyclo-hexane-carboxylic acid]
